Laboratory results from patent US20230150951A1, “2,5- OR 2,6-DISUBSTITUTED HYDROQUINONE DERIVATIVES WITH AT LEAST ONE CARBOXY, SULFO OR AMIDO GROUP USEFUL AS MEDICAMENTS” (OM PHARMA SA, priority 2020, published 2023).
Read-outs that look alike come from different tables or passages of the source.

Assays:
Assay type in all cases: cell-based
[1] = tested on: IL-13; assay: Cytokine release after LPS induction on human whole blood: IL-13
Protocol: (§1) Aim of this in vitro method is to assess compounds effects on release of a panel of cytokines from whole blood following lipopolysaccharide (LPS) induced inflammatory reaction. Whole blood was incubated with compounds for 1 h prior to LPS induction. Cytokine levels in blood were measured using a multiplex FACS-based panel.
(§2) IC50 values determined for the tested compounds expressed in microM [μM] and the values for the inhibition of cytokines were listed for each compound.
(§3) Effect on cytokines release after LPS induction was performed on the compounds dissolved in DMSO or H2O to reach 10-fold concentrated stock solutions and dissolved in culture media.
(§4) Test system: Whole blood was removed from a single donor (into lithium heparin coated tubes; BD Vacutainer; 367886) and diluted 1:5 with RPMI 1640 (Thermo Fisher, 61870036). Within 30 minutes of sampling, blood was incubated with compounds for 1 h prior to LPS stimulation (O111:B4—Sigma L4391; 10 ng/ml final concentration). Stimulation continued under standard cell culture conditions (37° C. with 5% CO2) overnight (18 h), after which plates were centrifuged and supernatant removed and frozen at −80° C. until used for analyses.
(§5) Dilution of test compounds: 10×concentrated solutions (concerning to the final assay concentrations) of each test compound were prepared with the appropriate solvent (in DMSO or in water). These 10× compound solutions (10 μl) were then added to 90 μl pre-diluted whole blood (whole blood: RPMI1640, 1:5) resulting in the final assay concentration.
(§6) Test method: Diluted whole blood (80 μl) was pre-incubated with compounds (10 μl) to give final assay concentrations of 100, 30, 10, 3, 1, 0.3 and 0.1×10^−6M. Blood was incubated at 37° C. with 5% CO2 for 1 h. LPS was diluted in cell culture media to a concentration of […]; 10 μl was added to the whole blood to give a final concentration of 10 ng/ml. Plates were incubated at 37° C. for 18 h. Plates were centrifuged at 3,000 RPM for 5 minutes at 4° C. and supernatant removed and frozen at −80° C. until FACS analysis was carried out.
(§7) Cytokine release was measured using a custom multiplex system (ELISA Genie) according to manufacturers instructions. Prepared samples were run on an Attune NxT flow cytometer (Thermo Fisher).
(§8) Quantification of cytokine release inhibition: known concentration standards were run as part of the cytokine panel to allow quantification of each cytokine concentration in each sample. This was carried out using FCAP Array v3.0 software.
(§9) Results: The dose response relationship on cytokine release following LPS induction of inflammatory response in whole blood was assessed for all compounds. IC50 values were determined for each compound for a panel of cytokines (GM-CSF, IFN-gamma, IL-1beta, IL-2, IL-4, IL-5, IL-6, IL-8, IL-9, IL-10, IL-12p40, IL-13, IL-17A, IL-17F, IL-18, IL-21, IL-22, IL-33, TGF-beta, TNF-alpha, TNF-beta).

[2] = tested on: Human neutrophils; assay: Neutrophil adhesion under static conditions; conditions: fMLP-stimulated adhesion to fibrinogen; method: 40 μM and 80 μM, concentration of the value not stated
Method in brief: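 Donor buffy-coat neutrophils (3×10^6/ml, PBS with Ca/Mg, 10% FCS, pH 7.2) preincubated 30 min at 37° C with 40 μM or 80 μM compound, then stimulated 1 min at 37° C with 1 nM fMLP on fibrinogen-coated glass. Adherent cells fixed and counted by computer; mean ± SD, unpaired t-test.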

[3] = tested on: IL-33; assay: Cytokine release after LPS induction on human whole blood: IL-33
Protocol: as §1, §2, §3, §4, §5, §6, §7, §8, §9

[4] = tested on: IL-17F; assay: Cytokine release after LPS induction on human whole blood: IL-17F
Protocol: as §1, §2, §3, §4, §5, §6, §7, §8, §9

[5] = tested on: IL-6; assay: Cytokine release after LPS induction on human whole blood: IL-6
Protocol: as §1, §2, §3, §4, §5, §6, §7, §8, §9

[6] = tested on: IL-5; assay: Cytokine release after LPS induction on human whole blood: IL-5
Protocol: as §1, §2, §3, §4, §5, §6, §7, §8, §9

[7] = tested on: TNF-beta; assay: Cytokine release after LPS induction on human whole blood: TNFβ
Protocol: as §1, §2, §3, §4, §5, §6, §7, §8, §9

[8] = tested on: IL-2; assay: Cytokine release after LPS induction on human whole blood: IL-2
Protocol: as §1, §2, §3, §4, §5, §6, §7, §8, §9

[9] = tested on: IL-4; assay: Cytokine release after LPS induction on human whole blood: IL-4
Protocol: as §1, §2, §3, §4, §5, §6, §7, §8, §9

[10] = tested on: IL-12p70; assay: Cytokine release after LPS induction on human whole blood: IL-12p70

## O=C(O)c1cc(NC(=O)c2cc(O)c(C(=O)Nc3ccccc3-c3nnn[nH]3)cc2O)ccc1O [Ic-001a-Tz/004a, 5-(4-(2-(1H-tetrazol-5-yl)phenylaminocarbonyl)-2,5-dihydroxybenzamido)-2-hydroxy benzoic acid]
[1]; Homo sapiens, 18 h, read-out: Whole Blood: IL-13 IC50
  IC50: 1500 nM
[1]; Homo sapiens, read-out: IC50 IL-13
  IC50: 1500 nM
[2]
  Neutrophil adhesion inhibition: 96.99%
[3]; Homo sapiens, 18 h, read-out: Whole Blood: IL-33 IC50
  IC50: 1670 nM
[3]; Homo sapiens, read-out: IC50 IL-33
  IC50: 1670 nM
[4]; Homo sapiens, 18 h, read-out: Whole Blood: IL-17F IC50
  IC50: 2400 nM
[4]; Homo sapiens, read-out: IC50 IL-17F
  IC50: 2400 nM
[5]; Homo sapiens, 18 h, read-out: Whole Blood: IL-6 IC50
  IC50: 3.04 µM
[5]; Homo sapiens, read-out: IC50 IL-6
  IC50: 3.04 µM
[6]; Homo sapiens, 18 h, read-out: Whole Blood: IL-5 IC50
  IC50: > 100 µM
[6]; Homo sapiens, read-out: IC50 IL-5
  IC50: 100 µM
[7]; Homo sapiens
  IC50: 3020 nM
[7]; Homo sapiens, 18 h, read-out: Whole Blood: TNF β IC50
  IC50: 3020 nM
[8]; Homo sapiens, 18 h, read-out: Whole Blood: IL-2 IC50
  IC50: 4.91 µM
[8]; Homo sapiens, read-out: IC50 IL-2
  IC50: 4.91 µM
[9]; Homo sapiens, 18 h, read-out: Whole Blood: IL-4 IC50
  IC50: > 100 µM
[9]; Homo sapiens, read-out: IC50 IL-4
  IC50: 100 µM
[10]; Homo sapiens, 18 h, read-out: Whole Blood: IL-12p70 IC50
  IC50: 12.2 µM
[10]; Homo sapiens, read-out: IC50 IL-12p70
  IC50: 12.2 µM

## O=C(O)Cc1cc(O)c(C(=O)Nc2c(C(=O)O)cccc2C(=O)O)cc1O [IIIa-013a, 2-(4-(carboxymethyl)-2,5-dihydroxybenzamido)isophthalic acid]
[1]; Homo sapiens, LPS 10 ng/ml, 18 h, read-out: Whole Blood: IL-13 IC50
  IC50: 370 nM
[1]; human whole blood, inhibition of LPS induced inflammation, read-out: IC50 IL-13
  IC50: 370 nM
[2]
  Neutrophil adhesion inhibition: 30.667%
[3]; Homo sapiens, LPS 10 ng/ml, 18 h, read-out: Whole Blood: IL-33 IC50
  IC50: 1110 nM
[3]; human whole blood, inhibition of LPS induced inflammation, read-out: IC50 IL-33
  IC50: 1110 nM
[4]; Homo sapiens, LPS 10 ng/ml, 18 h, read-out: Whole Blood: IL-17F IC50
  IC50: 410 nM
[4]; human whole blood, inhibition of LPS induced inflammation, read-out: IC50 IL-17F
  IC50: 410 nM
[5]; Homo sapiens, LPS 10 ng/ml, 18 h, read-out: Whole Blood: IL-6 IC50
  IC50: 3.55 µM
[5]; human whole blood, inhibition of LPS induced inflammation, read-out: IC50 IL-6
  IC50: 3.55 µM
[6]; Homo sapiens, LPS 10 ng/ml, 18 h, read-out: Whole Blood: IL-5 IC50
  IC50: > 100 µM
[6]; human whole blood, inhibition of LPS induced inflammation, read-out: IC50 IL-5
  IC50: 100 µM
[7]; Homo sapiens, LPS 10 ng/ml, 18 h, read-out: Whole Blood: TNF β IC50
  IC50: 890 nM
[7]; human whole blood, inhibition of LPS induced inflammation, read-out: IC50 β
  IC50: 890 nM
[8]; Homo sapiens, LPS 10 ng/ml, 18 h, read-out: Whole Blood: IL-2 IC50
  IC50: 57.1 µM
[8]; human whole blood, inhibition of LPS induced inflammation, read-out: IC50 IL-2
  IC50: 57.1 µM
[9]; Homo sapiens, LPS 10 ng/ml, 18 h, read-out: Whole Blood: IL-4 IC50
  IC50: > 100 µM
[9]; human whole blood, inhibition of LPS induced inflammation, read-out: IC50 IL-4
  IC50: 100 µM
[10]; Homo sapiens, LPS 10 ng/ml, 18 h, read-out: Whole Blood: IL-12p70 IC50
  IC50: 0.5 µM
[10]; human whole blood, inhibition of LPS induced inflammation, read-out: IC50 IL-12p70
  IC50: 0.5 µM
